Experimental data reported in US11465980B2, “6-membered aza-heterocyclic containing delta-opioid receptor modulating compounds, methods of using and making the same” (Trevena, Inc., priority 2015, dated 2022).

Assays:
rat [1] = test: Mechanical allodynia after Freund's Complete Adjuvant, Randall-Selitto (rat); format: in vivo; conditions: route sc, p < 0.05 vs vehicle
Protocol: Animals were acclimated to the vivarium for at least 48 hr prior to behavioral testing. Inflammation was induced for both rodent species with the administration of an intraplantar (subcutaneous injection into the plantar surface of the hind paw, i.pl.) injection of 0.10 ml Freund's Complete Adjuvant (FCA).
For rat studies, the experiments were conducted 24 hours after CFA administration. Rats are tested for mechanical allodynia in a Randall-Selitto apparatus. The inflamed paw is put on a pedestal and a pointed force of increasing intensity (0 to 250 grams) is applied to the paw. When the animal struggles to withdraw from the force the test is stopped and the force to induce that struggle is recorded. Data may be presented as mean grams of force to withdrawal or a percentage of the maximum possible effect.

rat [2] = test: Tactile allodynia produced by nitroglycerin (migraine model, rat); format: in vivo; conditions: route sc, po, nitroglycerin 10 mg/kg ip, p < 0.05 vs vehicle
mouse = test: Tactile allodynia produced by nitroglycerin (migraine model, mouse); format: in vivo; conditions: route sc, nitroglycerin 10 mg/kg ip, p < 0.05 vs vehicle
Protocol: Compounds were tested for efficacy in rodent models of nitroglycerine induced migraine. In this model both rats and mice can be induced to have a behavioral response consistent with the progression of a migraine attack by the intraperitoneal injection of nitroglycerin. In this test mice or rats (n=8/group) are given an intraperitoneal injection of nitroglycerin at 10 mg/kg. After 90 minutes the animals are subcutaneously dosed with test compound. A measurement of mechanical allodynia will be obtained using the up/down method with seven von Frey monofilaments. There is a specific series used for rat and mouse. Each monofilament is delivered to the hind paw for approximately 1-2 seconds. If there is a response, the next lower force will be delivered. This procedure will be performed until no response was made at the highest force or until four stimuli are administered following the initial response. The 50% paw withdrawal threshold for the hind paw will be calculated using the following formula: [Xth]log=[vFr]log+ky where [vFr] is the force of the last von Frey used, k is the average interval (in log units) between the von Frey monofilaments, and y is a value that depends upon the pattern of withdrawal responses. Testing for tactile sensitivity will be performed and a withdrawal value will be assigned as the tactile sensitivity (expressed in grams of force required to elicit a response) for the injected paw for each animal. Data is presented as the mean grams required to produce a hind paw withdrawal from the von Frey stimulus. […] Compounds found to be effective in this model of migraine at the doses indicated, although other doses may also be active. Other compounds described herein were not necessarily tested, but are expected to be able have some level of efficacy.

rat [3] = test: Hemilesioned rat 6-OHDA model (bar, drag, rotarod tests); format: in vivo; conditions: route sc, p < 0.05 vs vehicle
Protocol: Compounds were tested for efficacy in reversing akinesia and bradykinesia in two well accepted rodent Parkinson's disease (PD) models; the haloperidol-induced rat catalepsy and 6-OHDA rat hemiparkinson lesion models.
In the hemilesioned rat 6-OHDA model, the effect of compound on the akinetic response to lesioning of the contralateral forepaw in the bar test and stepping activity as measured by the drag test were determined. […] This assay examines efficacy for reversing PD motor symptoms (i.e. akinesia/bradykinesia and gait abilities). The behavioral readouts will include immobility time in the bar test (akinesia), number of steps in the drag test (akinesia/bradykinesia) and time spent on rod in the rotarod test (overall gait ability, gross motor behavior). Compounds were administered subcutaneously and efficacy was evaluated between 30 and 90 min post dose.

male c57bl6J mice [4] = test: Reversal of tactile allodynia produced by repeat dosing of sumatriptan (medication overuse headache); format: in vivo, mouse; conditions: 10 mg/kg s.c., 30 min prior to testing; sumatriptan 0.6 mg/kg i.p. daily for 11 days; FIG. 3
Protocol: Compounds were evaluated for their ability to treat Medication Overuse Headache (“MOH”). Assessment of reversal of tactile allodynia produced by repeat dosing of sumatriptan in mice: Mice (44 male c57bl6J mice, n=8-9/group) were habituated for 2 days on testing rack prior to injections. Mice were treated with vehicle (VEH-VEH (saline) VEH-B1049 (10% BCD-saline)) or sumatriptan (SUMA) (0.6 mg/kg, i.p.) daily for 11 days. Mechanical sensitivity was measured as the 50% withdrawal threshold to manual von Frey hair stimulation on day 12. Baseline measurement were taken 24 hours after final SUMA/VEH injection and 3 h later, post-drug measurements were taken after dosing with B1049 (10 mg/kg, s.c., 30 min prior to testing) or SNC80 (10 mg/kg, i.p., 45 min prior to testing). (***p<0.001 compared to post-drug SUMA-VEH). The results are illustrated in FIG. 3.

male c57bl6J mice [5] = test: Reversal of opioid-induced hyperalgesia (morphine); format: in vivo, mouse; conditions: 10 mg/kg s.c., 30 min prior to testing; morphine twice daily for 4 days; FIG. 4
Protocol: Next it was determined that B1049 could reverse opioid-induced hyperalgesia. Mice (44 male c57bl6J mice, n=8-9/group) were habituated for 2 days on testing rack prior to injections. Mice were treated with vehicle (VEH-VEH (saline), VEH-B1049 (10% BCD-saline)) or morphine (MORPH) (20 mg/kg, s.c. days 1-3, 40 mg/kg s.c. day 4) twice daily (9 a.m. and 5 p.m.) for 4 days. Mechanical sensitivity was measured as the 50% withdrawal threshold to manual von Frey hair stimulation on day 5. Baseline measurement were taken 16 hours after final MORPH/VEH injection and 3 h later, post-drug measurements were taken after dosing with B1049 (10 mg/kg, s.c., 30 min prior to testing) or SNC80 (10 mg/kg, i.p., 45 min prior to testing). (***p<0.001 compared to post-drug SUMA-VEH). The results are illustrated in FIG. 4.

male c57bl6J mice [6] = test: Tactile allodynia produced by repeat dosing of test drug (induction of medication overuse headache); format: in vivo, mouse; conditions: daily for 11 days; B1049 10 mg/kg s.c., sumatriptan 0.6 mg/kg i.p.; FIG. 5
Protocol: Mice (25 male c57bl6J mice, n=4-5/group) were habituated for 2 days on testing rack prior to injections. Mice were treated with vehicle (VEH-VEH (saline), VEH-B1049 (10% BCD-saline)), sumatriptan (SUMA) (0.6 mg/kg, i.p.), SNC80 (10 mg/kg, i.p.), or B1049 (10 mg/kg, s.c.) daily for 11 days. Mechanical sensitivity was measured as the 50% withdrawal threshold to manual von Frey hair stimulation on days 1 and 11. On these days, mice were habituated to the rack for 15-20 min, following which baseline mechanical thresholds were determined prior to administration of drug or control. On day 1 following assessment of baseline mechanical threshold, mice were weighed and injected with drug or control and returned to home cage. The results are illustrated in FIG. 5.

Compound: COCCOc1cccc([C@@H]2CCN(CCn3cccc3)[C@H](C)[C@H]2COc2ccc3c(c2)C(=O)NC3)c1 (relative stereo) [Compound B1049, (−)-6-{[(trans, trans)-4-[3-(2-methoxyethoxy)phenyl]-2-methyl-1-[2-(1H-pyrrol-1-yl)ethyl]piperidin-3-yl]methoxy}-2,3-dihydro-1H-isoindol-1-one]
- Active CFA Dose (rat [1]): ≤10 mg/kg
- Active Migraine Doses (rat [2]): ≤30 mg/kg
- Active Migraine Doses (mouse): ≤10 mg/kg
- Active Dose (hemilesioned rat 6-OHDA model) (rat [3]): ≤30 mg/kg
- reversal of tactile allodynia produced by repeat dosing of sumatriptan (male c57bl6J mice [4]): able to reverse tactile allodynia produced by repeat dosing of sumatriptan
- reversal of opioid induced hyperalgesia (male c57bl6J mice [5]): able to reverse opioid induced hyperalgesia
- induction of medication overuse headache (tactile allodynia after repeat dosing) (male c57bl6J mice [6]): does not induce medication overuse headache
